Like-named read-outs stand apart in the source and are kept apart here.
Experiments:
[1] = target: T1, hTLR7 (human Toll-like receptor 7) (Homo sapiens, UniProt Q9NYK1); assay: HEK-Blue hTLR7 reporter assay (QUANTI-Blue, OD650); format: cell-based; details: HEK-Blue hTLR7 cells, 24 h, read-out: Reporter assay TLR7 EC50
T1 construct: host or cells: HEK-Blue hTLR7 (HEK293-derived reporter cells)
T1 sequence (Q9NYK1 27-1049): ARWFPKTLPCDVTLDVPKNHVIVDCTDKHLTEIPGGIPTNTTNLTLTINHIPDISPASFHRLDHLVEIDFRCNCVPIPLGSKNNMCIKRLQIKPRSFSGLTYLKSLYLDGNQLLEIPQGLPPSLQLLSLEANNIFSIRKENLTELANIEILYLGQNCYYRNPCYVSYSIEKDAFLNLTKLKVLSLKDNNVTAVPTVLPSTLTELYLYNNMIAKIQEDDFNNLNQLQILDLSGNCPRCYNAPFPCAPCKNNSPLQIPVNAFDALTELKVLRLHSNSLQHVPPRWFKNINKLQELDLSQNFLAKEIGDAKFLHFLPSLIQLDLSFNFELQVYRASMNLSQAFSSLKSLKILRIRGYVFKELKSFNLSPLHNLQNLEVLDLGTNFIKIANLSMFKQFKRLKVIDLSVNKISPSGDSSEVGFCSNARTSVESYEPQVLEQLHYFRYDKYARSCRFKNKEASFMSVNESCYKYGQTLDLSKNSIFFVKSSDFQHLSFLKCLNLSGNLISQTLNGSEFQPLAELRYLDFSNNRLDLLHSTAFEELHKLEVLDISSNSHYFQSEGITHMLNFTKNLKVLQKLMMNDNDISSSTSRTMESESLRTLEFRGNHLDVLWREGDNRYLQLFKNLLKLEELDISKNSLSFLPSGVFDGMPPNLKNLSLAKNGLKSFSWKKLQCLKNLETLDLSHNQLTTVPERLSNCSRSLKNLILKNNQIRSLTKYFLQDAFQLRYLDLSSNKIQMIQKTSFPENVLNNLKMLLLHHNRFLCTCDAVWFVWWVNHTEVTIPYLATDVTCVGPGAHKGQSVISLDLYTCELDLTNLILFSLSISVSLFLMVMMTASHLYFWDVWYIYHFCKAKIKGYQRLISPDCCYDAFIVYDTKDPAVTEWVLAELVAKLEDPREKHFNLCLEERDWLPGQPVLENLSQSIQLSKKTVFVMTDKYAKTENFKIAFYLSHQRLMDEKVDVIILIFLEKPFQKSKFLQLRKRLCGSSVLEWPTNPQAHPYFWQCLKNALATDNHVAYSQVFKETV
Procedure: In this example, the agonistic activity of the compounds of the present application on hTLR7 (human Toll-like receptor 7) and hTLR8 (human Toll-like receptor 8) was assessed; the induction activity of the compounds on human PBMCs for TNF-α and IFN-α production was assessed in human PBMCs (human peripheral blood mononuclear cells).
All compounds were formulated in DMSO into 30 mM stock solutions and preserved at 4° C. The reference compound ([…], Cat. No. tlrl-r848-5) was purchased from InvivoGen and formulated into a 5 mg/mL stock solution in DMSO and preserved in a freezer at −20° C. HEK-Blue hTLR7 and HEK-Blue hTLR8 cell lines were purchased from InvivoGen, and human PBMCs were purchased from Shanghai Saily Biotechnology Co., Ltd. (Cat. No. XFB—HP100B).
The major instruments used in this study were multifunctional microplate reader Flexstation III (Molecular Device), Envision (Perkin Elmer), M2e (Molecular Device), and Echo555 (Labcyte). 2.1 Agonistic activity of compounds on hTLR7 (human Toll-like receptor 7) and hTLR8 (human Toll-like receptor 8)
Compound dilution: The compounds of the present application are diluted in DMSO, for example, to about 15 mM. The reference compound was added to the plates in sequence after dilution. The compounds were serially 3-fold diluted to 10 concentrations and added to 96-well plates in duplicate.
For the negative control wells, DMSO was added at 0.2 μL/well, and the reference compound was added to the positive control wells. The final concentration of DMSO was 0.2%.
Cell plating: When an 80% confluence of HEK Blue hTLR7&8 cells in the culture flask was observed under a microscope, the culture medium was discarded, 10 mL of detection medium was added, and the cells were separated by pipetting. The cells were counted on a cytometer and diluted to 500,000 cells/mL. The cells were plated at 100 μL/50,000 cells/well in the 96-well plates containing the compounds. The compounds and cells were co-incubated at 37° C. in a 5% CO2 incubator for 24 hours.
Compound activity detection: 20 μL of cell supernatant was taken from each well and added to a plate containing QUANTI-Blue™ reagent at 180 μL/well. The plate was incubated at 37° C. for 1 hour, and the absorbance at 650 nm (OD650) was measured on the multifunctional microplate reader Flexstation III.
Compound activity data analysis: The OD650 values were analyzed by GraphPad Prism software and fitted to give dose-response curves of the compounds. The EC50 values of compounds were calculated.

[2] = test system: TNF-α production in human PBMCs; assay: Induction of TNF-α in human PBMCs (ELISA); format: cell-based; details: PBMC, 24 h, read-out: PBMC assay TNFa EC50
Procedure: In this example, the induction activity of the compounds of the present application on human PBMCs for TNF-α and IFN-α production was assessed in human PBMCs (human peripheral blood mononuclear cells). The human PBMCs were purchased from Shanghai Saily Biotechnology Co., Ltd. (Cat. No. XFB—HP100B). PBMC cells were treated with the compounds. The compounds of the present application are diluted in DMSO, for example, to about 15 mM. The reference compound was added to the plates in sequence after diluted to 5 mg/mL. The compounds were serially 3- or 4-fold diluted to 8 concentrations and added to plates in duplicate (Table 2-1 for serial 3-fold dilutions and Table 2-2 for serial 4-fold dilutions). For the negative control wells, DMSO was added at 0.4 μL/well, and a 5 mg/mL reference compound solution was added to the positive control wells at 0.4 μL/well. The final concentration of DMSO was 0.2%. Frozen human PBMCs in cryopreservation tubes were quickly thawed in a 37° C. water bath and transferred into 50-mL centrifuge tubes. Prewarmed RPMI1640 medium was gradually added and the mixture was well mixed and centrifuged for 15 min before the supernatant was discarded. The cells were resuspended in a culture medium and counted. The cell suspension was adjusted to 2.5×10^6 cells/mL with the culture medium. Diluted cells were added at 200 μL/500,000 cells/well in 96-well plates containing the compounds. The cell plates were incubated at 37° C./5% CO2 for 24 h.
The plate was then washed thrice. […] Termination of reaction: The reaction was terminated by quickly adding the stop solution at 100 μL/well. Plate reading: The reading at wavelength 450 nm was detected by an M2e instrument within 10 min after the termination.
Compound activity data analysis: The OD450 values were converted to TNF-α and IFN-α contents by GraphPad Prism software analysis and fitted to give dose-response curves of the compounds. The EC50 values for the compounds were calculated, where the Emax values are the maximal values for TNF-α and IFN-α.

[3] = serial 4-fold dilutions, class symbols

| EC50 [1] | EC50 ([1]; class symbols) | Structure (SMILES) | EC50 ([2]; serial 3-fold dilutions) | EC50 [2, 3] |
| --- | --- | --- | --- | --- |
| 712 nM |  | CCCN(OCc1ccc(N)cc1)C(=O)C1=Cc2ccc(-c3cncc(CO)c3)cc2N=C(N)C1 [Compound 15] | 3 nM |  |
|  | > 1000 nM | CCCN(OCc1ccc(N)cc1)C(=O)C1=Cc2ccc(-c3cncc(C(=O)O)c3)cc2N=C(N)C1 [Compound 32] |  | 10 to 50 nM |
| 758 nM |  | CCCN(OCc1ccc(N)cc1)C(=O)C1=Cc2ccc(-c3cccc(S(N)(=O)=O)c3)cc2N=C(N)C1 [Compound 35] | 5 nM |  |
| 1080 nM |  | CCCN(OCc1ccc(N)cc1)C(=O)C1=Cc2ccc(-c3cncc(S(N)(=O)=O)c3)cc2N=C(N)C1 [Compound 36] | 12.2 nM |  |
|  | > 1000 nM | CCCN(OCc1ccc(N)cc1)C(=O)C1=Cc2ccc(C(=O)N3CC(CO)C3)cc2N=C(N)C1 [Compound 37] |  | 10 to 50 nM |
| 11700 nM |  | CCCN(OCc1ccc(N)cc1)C(=O)C1=Cc2ccc(C(=O)Nc3cccnc3)cc2N=C(N)C1 [Compound 40] | 9.08 nM |  |
| 2240 nM |  | CCCN(OCc1ccc(N)cc1)C(=O)C1=Cc2ccc(-c3cccc(S(=O)(=O)N4CC(O)C4)c3)cc2N=C(N)C1 [Compound 41] | 15.3 nM | ≤ 10 nM |
|  | > 1000 nM | CCCN(OCc1ccc(N)cc1)C(=O)C1=Cc2ccc(-c3ccc(C(=O)N4CC[C@@H](O)C4)cc3)cc2N=C(N)C1 [Compound 42] | 37 nM | 10 to 50 nM |
| 180 nM |  | CCCN(OCc1ccc(N)cc1)C(=O)C1=Cc2ccc(-c3ccc4c(c3)C(=O)OC4)cc2N=C(N)C1 [Compound 43] | 8.04 nM |  |
| 1160 nM |  | NC1=Nc2cc(-c3cncc(CO)c3)ccc2C=C(C(=O)N(CC2CC2)OCc2ccc(N)cc2)C1 [Compound 45] | 7.33 nM |  |
|  | > 1000 nM | CCCN(OCc1ccc(N)cc1)C(=O)C1=Cc2ccc(C(=O)N3CCC(O)C3)cc2N=C(N)C1 (stereo not shown) [Compound 46] |  | 10 to 50 nM |
|  | > 1000 nM | CCCN(OCc1ccc(N)cc1)C(=O)C1=Cc2ccc(C(=O)N3CCOC(CO)C3)cc2N=C(N)C1 (stereo not shown) [Compound 47] |  | 10 to 50 nM |
|  | > 1000 nM | CCCN(OCc1ccc(N)cc1)C(=O)C1=Cc2ccc(C(=O)NCCO)cc2N=C(N)C1 [Compound 48] |  | 10 to 50 nM |
| 245 nM |  | CCCN(OCc1ccc(N)cc1)C(=O)C1=Cc2ccc(-c3cncc(Cl)c3)cc2N=C(N)C1 [Compound 49] | 26.1 nM |  |
| 274 nM |  | CCCN(OCc1ccc(N)cc1)C(=O)C1=Cc2ccc(-c3cncc(C#N)c3)cc2N=C(N)C1 [Compound 50] | 7.7 nM |  |
| 428 nM |  | CCCN(OCc1ccc(N)cc1)C(=O)C1=Cc2ccc(-c3ccc(C#N)nc3)cc2N=C(N)C1 [Compound 51] | 17.3 nM |  |

| EC50 [1] | EC50 ([1]; class symbols) | Structure (SMILES) | EC50 ([2]; serial 3-fold dilutions) | EC50 [2, 3] |
| --- | --- | --- | --- | --- |
| 355 nM |  | CCCN(OCc1ccc(N)cc1)C(=O)C1=Cc2ccc(-c3cncc(N)c3)cc2N=C(N)C1 [Compound 52] | 8.61 nM |  |
|  | 100 to 1000 nM | CCCN(OCc1ccc(N)cc1)C(=O)C1=Cc2ccc(-c3cncc(C(F)(F)F)c3)cc2N=C(N)C1 [Compound 53] |  | 10 to 50 nM |
| 528 nM |  | CCCN(OCc1ccc(N)cc1)C(=O)C1=Cc2ccc(-c3cncc(CN)c3)cc2N=C(N)C1 [Compound 54] | 3.98 nM |  |
| 685 nM |  | CCCN(OCc1ccc(N)cc1)C(=O)C1=Cc2ccc(-c3ccc(N4CCOCC4)nc3)cc2N=C(N)C1 [Compound 55] | 33.5 nM |  |
| 664 nM |  | CCCN(OCc1ccc(N)cc1)C(=O)C1=Cc2ccc(-c3cncc(S(C)(=O)=O)c3)cc2N=C(N)C1 [Compound 56] | 7.35 nM |  |
|  | 100 to 1000 nM | NC1=Nc2cc(-c3cncc(CO)c3)ccc2C=C(C(=O)N(CCC(F)(F)F)OCc2ccc(N)cc2)C1 [Compound 58] |  | ≤ 10 nM |
|  | 100 to 1000 nM | CCCN(OCc1ccc(N)cc1Cl)C(=O)C1=Cc2ncc(-c3cncc(CO)c3)cc2N=C(N)C1 [Compound 59] |  | ≤ 10 nM |
|  | 100 to 1000 nM | CCCN(OCc1ccc(N)cc1OC)C(=O)C1=Cc2ncc(-c3cncc(CO)c3)cc2N=C(N)C1 [Compound 60] |  | ≤ 10 nM |
|  | 100 to 1000 nM | CCCN(OCc1ccc(N)cc1)C(=O)C1=Cc2ncc(-c3cncc(CO)c3)cc2N=C(N)C1 [Compound 61] |  | ≤ 10 nM |
|  | 100 to 1000 nM | CCCN(OCc1ccc(N)cc1)C(=O)C1=Cc2ccc(-c3cncc(CO)c3)nc2N=C(N)C1 [Compound 62] |  | ≤ 10 nM |
|  | 100 to 1000 nM | CCCN(OCc1ccc(N)cc1)C(=O)C1=Cc2ccc(-c3cnc4c(c3)C(=O)OC4)nc2N=C(N)C1 [Compound 63] |  | ≤ 10 nM |
|  | 100 to 1000 nM | CCCN(OCc1ccc(N)cc1)C(=O)C1=Cc2ccc(-c3cccc(S(=O)(=O)NCCO)c3)cc2N=C(N)C1 [Compound 64] |  | ≤ 10 nM |
|  | 100 to 1000 nM | CCCN(OCc1ccc(N)cc1)C(=O)C1=Cc2ccc(-c3cccc(S(=O)(=O)N4CCC(O)CC4)c3)cc2N=C(N)C1 [Compound 66] |  | ≤ 10 nM |
|  | 100 to 1000 nM | CCCN(OCc1ccc(N)cc1)C(=O)C1=Cc2ccc(-c3cccc(S(=O)(=O)N4CCNCC4)c3)cc2N=C(N)C1 [Compound 67] |  | ≤ 10 nM |
|  | 100 to 1000 nM | CCCN(OCc1ccc(N)cc1)C(=O)C1=Cc2ccc(-c3cccc(S(=O)(=O)N4CCOCC4)c3)cc2N=C(N)C1 [Compound 68] |  | ≤ 10 nM |

From patent US20250059141A1, “TLR MODULATOR AND USE THEREOF” (DUALITY BIOLOGICS (SUZHOU) CO., LTD., priority 2021, published 2025)
